Data as given in patent US20160333419A1, “GENE SIGNATURES ASSOCIATED WITH SENSITIVITY TO MDM2 INHIBITORS” (DAIICHI SANKYO COMPANY, LIMITED, priority 2014, published 2016).
pIC50: −log10 of the molar value.

Tests used:
SW620 = test: OncoPanel cytotoxicity assay; type: cell-based; conditions: Homo sapiens, SW-620, 72 hour incubation
In short: (§1)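 Cells grown in RPMI 1640 with 10% FBS (or a special medium) at 37° C, 5% CO2 were treated 24 hours after seeding for 72 hours with 10 concentrations (3.16-fold dilutions, 0.1% DMSO final). Nuclei were dye-stained and imaged; IC50 was fit from percent of control relative cell count.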

HepG2 = test: OncoPanel cytotoxicity assay; type: cell-based; conditions: Homo sapiens, 72 hour incubation
In short: as §1

CFPAC-1 = test: OncoPanel cytotoxicity assay; type: cell-based; conditions: Homo sapiens, 72 hour incubation
In short: as §1

[1] = test system: multi-cancer cell line panel; test: OncoPanel cytotoxicity assay, whole panel summary; type: cell-based, human
Description: This Example describes an evaluation of the effect of a representative small molecule MDM2i on the growth of cells in a multi-cancer cell line panel. In this Example, the MDM2 inhibitors used were Compound A and Compound B p-toluenensulfonate. The panel included 250 human cancer cell lines (OncoPanel™, Ricerca Biosciences, Painesville, Ohio) that were evaluated in a high content drug screening analysis. The relative IC50 values for the cell lines were determined.
Cells were grown in RPMI 1640, 10% FBS, 2 mM L-alanyl-L-Glutamine, 1 mM Na Pyruvate, or a special medium in a humidified atmosphere of 5% CO2 at 37° C. Cells were seeded into 384-well plates and incubated in a humidified atmosphere of 5% CO2 at 37° C. Test compounds were added 24 hours post cell seeding. At the same time, a time zero, untreated cell plate was generated as a control. After a 72 hour incubation period, cells were fixed and stained with nuclear dye to allow visualization of nuclei.
Compounds were serially diluted 3.16-fold and assayed over 10 concentrations of inhibitor in a final assay concentration of 0.1% DMSO from the highest test concentration specified in the sample information chapter. Automated fluorescence microscopy was carried out using a GE Healthcare InCell Analyzer 1000, and images were collected with a 4× objective. Twelve bit tiff images were acquired using the InCell Analyzer 1000 3.2 and analyzed with Developer Toolbox 1.6 software.
Cell proliferation was measured by the signal intensity of the incorporated nuclear dye. The cell proliferation assay output is referred to as the relative cell count. To determine the cell proliferation end point, the cell proliferation data output is transformed to percent of control (POC) using the following formula: […]
Relative cell count IC50 (IC50) is the test compound's concentration that produces 50% of the cell proliferation inhibitory response or 50% cytotoxicity level. IC50 values were calculated using nonlinear regression to fit data to a sigmoidal 4 point, 4 parameter One-Site dose response model, where: y (fit)=A+[(B−A)/(1+((C/x)̂D))]. […]

CTG-0292 Pancreatic = test: Champions TumorGraft model, tumor growth inhibition; type: in vivo, mice; conditions: 100 mg/kg/dose p.o./qd × 10, TGI evaluation Day 11
From the text: (§2) Patient-derived xenograft models (Champions TumorGraftTM; Champions Oncology, Inc., Hackensack, N.J.) were used. Champions TumorGraftsTM provide a highly focused, accelerated translational platform, which is based upon the implantation of primary human tumors in immune-deficient mice followed by propagation of the resulting low-passage Champions TumorGraftsTM in a manner that preserves the biological characteristics of the original human tumor. […] The TumorGraftsTM models allow a comparison of gene expression analysis of patients' cancer samples and Champions TumorGraftTM samples by microarray expression analysis. Large numbers (e.g., 30,000) of genes are analyzed. […] Female immunocompromised nu/nu mice (Harlan) between 6-9 weeks of age were housed on irradiated […]-enriched 1⁄8'' corncob bedding ([…]) in individual HEPA ventilated cages (Innocage® IVC, Innovive USA) and were kept on a 12-hour light-dark cycle at 68-74° F. (20-23° C.) and 30-70% humidity. Animals were fed water ad libitum (reverse osmosis, 2 ppm C12) and an irradiated Test rodent diet (Teklad 2919) consisting of 19% protein, 9% fat, and 4% fiber. Animals were implanted bilaterally in the flank region with tumor fragments harvested from tumored host animals, each implanted from a specific passage lot. Pre-study tumor volumes were recorded for each experiment beginning approximately one week prior to its estimated start date. When tumors reached approximately 125-250 mm^3, animals were matched by tumor volume into treatment and control groups, and dosing was initiated (Day 0). Animals in all studies were tagged and followed individually throughout the experiment. Initial dosing for standard agents began on Day 0; animals in all groups were dosed by weight (0.01 ml per gram; 10 ml/kg). Dose concentration(s), route(s) of administration and schedule(s) for each group are listed in the Experimental Design section, wherein “p.o./qd×10” indicates orally (by mouth) daily for 10 days. The experimental design of the human tumor graft model study is presented below in Table 4. “n” indicates the number of animals per group; “ROA” indicates route of administration of the test agent, i.e., the MDM2i drug. Beginning on Day 0, tumor dimensions were measured twice weekly by digital caliper and data including individual and mean estimated tumor volumes (Mean TV±SEM) were recorded for each group. Tumor volume was calculated using the formula (1): TV=width^2×length×0.52. At study completion, percent tumor growth inhibition (% TGI) values were calculated and reported for each treatment group (T) versus control (C) using initial (i) and final (f) tumor measurements and the formula (2): % TGI=1-Tf-Ti/Cf-C. The tumor growth inhibition (TGI) values on the scheduled dates closest to the last administration are summarized Table 5 below. In this example, the study duration was defined by the tumor size of the vehicle control. In some cases, for example, that of CTG-0213 in Table 5, required a longer time period for the tumor to reach a threshold size. As a result, the test animals treated with the MDM2i Compound B were also left for a longer time period, e.g., 40 days in the case of CTG-0213, without MDM2i treatment. […] Thus, the evaluation of TGI was set to be near the end of the treatment period, such as around Day 7-11 (around Day 9).

CTG-0204 Melanoma = test: as above; type: in vivo, mice; conditions: 100 mg/kg/dose p.o./qd × 10, TGI evaluation Day 10
From the text: as §2

CTG-0093 Colorectal = test: as above; type: in vivo, mice; conditions: 100 mg/kg/dose p.o./qd × 10, TGI evaluation Day 9
From the text: as §2

[2] = share of the cell lines of the panel

SMILES | pIC50 (SW620) | pIC50 (HepG2) | pIC50 (CFPAC-1) | pIC50 ([1]; Homo sapiens, range over all cell lines of the panel, read-out: Cell line IC50 values ranged) | cell lines with IC50 values of <1 μM [1, 2] | cell lines with IC50 values of >10 μM [1, 2] | % TGI (CTG-0292 Pancreatic) [%] | % TGI (CTG-0204 Melanoma) [%] | % TGI (CTG-0093 Colorectal) [%]
CC[C@@H]1CNC2(CC2)CN1C(=O)[C@@H]1C[C@@H](F)CN1C(=O)C1=C(C(C)C)N2C(=N[C@@](C)(c3ccc(Cl)nc3)[C@H]2c2ccc(Cl)c(F)c2)S1 [Compound A, [(5R,6S)-5-(4-Chloro-3-fluorophenyl)-6-(6-chloropyridin-3-yl)-6-methyl-3-(propan-2-yl)-5,6-dihydroimidazo[2,1-b][1,3]thiazol-2-yl][(2S,4R)-2-{[(6R)-6-ethyl-4,7-diazaspiro[2.5]oct-7-yl]carbonyl}-4-fluoropyrrolidin-1-yl]methanone] | < 4.40 | 6.47 | < 4.40 | ≤ 6.92 | Approximately 25% | approximately 70% | – | – | –
CC1(C)CCC2(CC1)N[C@@H](C(=O)N[C@@H]1CC[C@@H](C(N)=O)OC1)[C@H](c1ccnc(Cl)c1F)[C@]21C(=O)Nc2cc(Cl)ccc21 [Compound B, (3′R,4′S,5′R)—N-[(3R,6S)-6-carbamoyltetrahydro-2H-pyran-3-yl]-6″-chloro-4′-(2-chloro-3-fluoropyridin-4-yl)-4,4-dimethyl-2″-oxo-1″,2″-dihydrodispiro[cyclohexane-1,2′-pyrrolidine-3′,3″-indole]-5′-carboxamide] | 5.15 | 7.23 | < 5.00 | – | – | – | 54 | 51 | 53
